Patent publication US10941157B2, “Pesticidal compositions and uses thereof” (Gilead Apollo, LLC, priority 2015, dated 2021)
Converted amounts (≈) assume the structure as drawn. Read-outs that look alike come from different tables or passages of the source.

Legend:
Rhizoctonia solani = experiment: Seed protectant for soybean seedling disease, R. solani; format: in vivo; conditions: soybean from treated seeds, 0.025 mg/seed, R. solani inoculated; for Plant Weight: fresh weight at 14 days; for Improvement in plant weight: percentage of non-inoculated non-treated controls
Protocol: (§1) The pathogen of Rhizoctonia solani inoculum was grown on sterile sorghum; and the pathogen of Pythium ultimum inoculum was grown on white millet.
(§2) Soybean seeds (Glycine max cv. AG4832) were planted in 2.5-inch square pots containing Berger BM2 germination mix amended with fertilizer (e.g., 14-14-14). Pots with soil were inoculated with the pathogen of R. solani or P. ultimum at time of planting. A hole was pressed into the soil to a depth of about 2 to 3 cm; the inoculum was added to the hole, followed by the seed which was then covered with soil. Two seeds per pot were planted. Plants were grown in a growth chamber at conditions of 20 to 24° C., 14 hour light cycle, 500 uM of light, and 65% humidity. The pots inoculated with P. ultimum were sub-irrigated every day; and the pots inoculated with R. solani were sub-irrigated every other day.
(§3) Seedling emergence was captured at 7 and 14 days after seeding. At 14 days, the top of the plant was removed and fresh weight was recorded. The plant weights from the seeds treated with test compounds (e.g., in formulations) were compared to the ones either from the inoculated non-treated seeds or non-inoculated non-treated seeds. Table 10 lists the results of the R. solani control in soybean upon seed treatment with test compounds, and Table 11 lists the results of the P. ultimum control in soybean upon seed treatment with test compounds, respectively.

Septoria tritici (St) = experiment: In vitro pathogen growth inhibition assay, St; format: cell-based; conditions: Zymoseptoria tritici, 48 h
Outline: (§4)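 Spores in 17% V8 liquid medium, or 1.5 mm Rs mycelial plugs in ¼ PDB, incubated with compound; final concentration checked by OD600 for precipitation. OD readings at 24 and 48 h, blank-subtracted, plus visual ratings; value is concentration giving ≥90% growth inhibition.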

[1] = test system: Collectotrichum graminicola (Cg); experiment: In vitro pathogen growth inhibition assay, Cg; format: cell-based; conditions: 48 h
Outline: as §4

[2] = test system: Fusarium virguliforme (Fv); experiment: In vitro pathogen growth inhibition assay, Fv; format: cell-based
Outline: (§5)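 Spores of Dm, Fv and Pc were diluted in 17% V8 liquid medium; Rs used 1.5 mm mycelial plugs in ¼ PDB. Compounds from 2.5 mg/ml DMSO stocks were combined with inoculum, growth was read by OD600 at 24 and 48 h with blank subtraction, and the reported value is the concentration giving ≥90% inhibition.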

Rhizoctonia solani (Rs) = experiment: In vitro pathogen growth inhibition assay, Rs (mycelial plugs); format: cell-based; conditions: Rhizoctonia solani, 48 h, mycelial plugs
Outline: as §5

Botrtyis cinerea (Bc) = experiment: In vitro pathogen growth inhibition assay, Bc; format: cell-based; conditions: 48 h
Outline: as §4

[3] = test system: Phytophthora capsici (Pc); experiment: In vitro pathogen growth inhibition assay, Pc; format: cell-based; conditions: 48 h
Outline: as §5

[4] = test system: Blumeria graminis f. sp. hordei; experiment: Foliar protection test for barley powdery mildew control; format: in vivo; conditions: foliar spray on Hordeum vulgare cv. Perry, inoculated 24 hours after treatment, evaluated 7 days later
Outline: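 Six-day-old barley (cv. Perry) sprayed to wetness on both leaf sides; 24 h later inoculated by shaking spores from infected stock plants. Kept at 20 to 22° C, 70% relative humidity; mildew colonization assessed 7 days later.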

Puccinia triticina = experiment: Foliar protection test for wheat leaf rust control; format: in vivo; conditions: foliar application to wheat (Triticum aestivum cv. Winterhawk), evaluated 10 days later
[5] = test system: Mycosphaerella graminicola (synthetic Septoria tritici); experiment: Foliar protection test for wheat septoria leaf blotch control; format: in vivo; conditions: foliar spray on Triticum aestivum cv. WinterHawk, inoculated 1 hour after treatment, evaluated 16 days later
Diplodia maydis (Dm) = experiment: In vitro pathogen growth inhibition assay, Dm; format: cell-based; conditions: Stenocarpella maydis, 48 h
Outline: as §5

[6] = test system: Fusarium moniliforme (Fm); experiment: In vitro pathogen growth inhibition assay, Fm; format: cell-based; conditions: Fusarium verticillioides
Outline: as §4

Pythium ultimum = experiment: Seed protectant for soybean seedling disease, P. ultimum; format: in vivo; conditions: soybean from treated seeds, 0.025 mg/seed, P. ultimum inoculated; for Plant Weight: fresh weight at 14 days; for Improvement in plant weight: percentage of non-inoculated non-treated controls
Protocol: as §1, §2, §3

[7] = ≥90% growth inhibition, 48 hours, vs 2% DMSO control, read-out: Compound Concentration (ppm) sufficient for ≥90% inhibition of St
[8] = ≥90% growth inhibition, 48 hours, vs 2% DMSO control, read-out: Compound Concentration (ppm) sufficient for ≥90% inhibition of Cg
[9] = ≥90% growth inhibition, 48 hours, vs 2% DMSO control, read-out: Compound Concentration (ppm) sufficient for ≥90% inhibition of Fv
[10] = ≥90% growth inhibition, 48 hours, vs 2% DMSO control, read-out: Compound Concentration (ppm) sufficient for ≥90% inhibition of Rs
[11] = ≥90% growth inhibition, 48 hours, vs 2% DMSO control, read-out: Compound Concentration (ppm) sufficient for ≥90% inhibition of Bc
[12] = ≥90% growth inhibition, 48 hours, vs 2% DMSO control, read-out: Compound Concentration (ppm) sufficient for ≥90% inhibition of Pc
[13] = ≥90% growth inhibition, 48 hours, vs 2% DMSO control, read-out: Compound Concentration (ppm) sufficient for ≥90% inhibition of Dm
[14] = ≥90% growth inhibition, 48 hours, vs 2% DMSO control, read-out: Compound Concentration (ppm) sufficient for ≥90% inhibition of Fm

SMILES | Plant Weight (Rhizoctonia solani) [g] | Improvement in plant weight (Rhizoctonia solani) [%] | Barley Powdery Mildew Control at a compound concentration of 10 ppm or lower [4] | Wheat Leaf Rust Control at a compound concentration of 10 ppm or lower (Puccinia triticina) | Septoria Leaf Blotch Control at a compound concentration of 25 ppm or lower [5] | Plant Weight (Pythium ultimum) [g] | Improvement in plant weight (Pythium ultimum) [%] | IC90 (Septoria tritici (St); [7]) [µg/mL] | IC90 [1, 8] [µg/mL] | IC90 [2, 9] [µg/mL] | IC90 (Rhizoctonia solani (Rs); [10]) [µg/mL] | IC90 (Botrtyis cinerea (Bc); [11]) [µg/mL] | IC90 [3, 12] [µg/mL] | IC90 (Diplodia maydis (Dm); [13]) [µg/mL] | IC90 [6, 14] [µg/mL] | also measured
COc1ccc(F)cc1[C@H](Cn1c(=O)n(C(C)(C)C(=O)NC(C)C)c(=O)c2c(C)c(-n3nccn3)sc21)OCCC#N [Compound I-095, (R)-2-(1-(2-(2-cyanoethoxy)-2-(5-fluoro-2-methoxyphenyl)ethyl)-5-methyl-2,4-dioxo-6-(2H-1,2,3-triazol-2-yl)-1,4-dihydrothieno[2,3-d]pyrimidin-3 (2H)-yl)-N-isopropyl-2-methylpropanamide] | 7.54 | 93.9 | AA (≥85% control of barley powdery mildew) | AA (≥85% control of wheat leaf rust) | AA (≥85% control of wheat septoria leaf blotch) | 4.65 | 74 | – | – | – | – | – | – | – | – | IC90 (Septoria tritici (St); ≥90% inhibition, 48 hours vs 2% DMSO control, read-out: Compound Concentration (ppm) sufficient for ≥90% inhibition of growth, St): > 50 µg/mL; IC90 ([1]; ≥90% inhibition, 48 hours vs 2% DMSO control, read-out: Compound Concentration (ppm) sufficient for ≥90% inhibition of growth, Cg): 0.08 µg/mL (≈ 0.134 µM); IC90 ([2]; ≥90% inhibition, 48 hours vs 2% DMSO control, read-out: Compound Concentration (ppm) sufficient for ≥90% inhibition of growth, Fv): 0.08 µg/mL (≈ 0.134 µM); IC90 (Rhizoctonia solani (Rs); ≥90% inhibition, 48 hours vs 2% DMSO control, read-out: Compound Concentration (ppm) sufficient for ≥90% inhibition of growth, Rs): 0.08 µg/mL (≈ 0.134 µM); IC90 (Botrtyis cinerea (Bc); ≥90% inhibition, 48 hours vs 2% DMSO control, read-out: Compound Concentration (ppm) sufficient for ≥90% inhibition of growth, Bc): 0.4 µg/mL (≈ 0.669 µM); IC90 ([3]; ≥90% inhibition, 48 hours vs 2% DMSO control, read-out: Compound Concentration (ppm) sufficient for ≥90% inhibition of growth, Pc): ≥ 2 µg/mL; IC90 (Diplodia maydis (Dm); ≥90% inhibition, 48 hours vs 2% DMSO control, read-out: Compound Concentration (ppm) sufficient for ≥90% inhibition of growth, Dm): 0.08 µg/mL (≈ 0.134 µM); IC90 ([6]; ≥90% inhibition, 48 hours vs 2% DMSO control, read-out: Compound Concentration (ppm) sufficient for ≥90% inhibition of growth, Fm): 0.08 µg/mL (≈ 0.134 µM)
COc1ccccc1[C@H](Cn1c(=O)n(C(C)(C)C(=O)NC(C)C)c(=O)c2c(C)c(-n3nccn3)sc21)OCCC#N [Compound I-193, (R)-2-(1-(2-(2-cyanoethoxy)-2-(2-methoxyphenyl)ethyl)-5-methyl-2,4-dioxo-6-(2H-1,2,3-triazol-2-yl)-1,4-dihydrothieno[2,3-d]pyrimidin-3 (2H)-yl)-N-isopropyl-2-methylpropanamide] | 6.83 | 85.0 | AA (≥85% control of barley powdery mildew) | AA (≥85% control of wheat leaf rust) | AA (≥85% control of wheat septoria leaf blotch) | 5.36 | 86 | ≥ 2 | ≥ 0.08 | 0.4 (≈ 0.69 µM) | 0.08 (≈ 0.138 µM) | ≥ 0.08 | 2 (≈ 3.45 µM) | 0.08 (≈ 0.138 µM) | 0.08 (≈ 0.138 µM) | –
COc1ccc(F)cc1[C@H](Cn1c(=O)n(C(C)(C)C(=O)NC(C)C)c(=O)c2c(C)c(-n3cccn3)sc21)OCCC#N [Compound I-191, (R)-2-(1-(2-(2-cyanoethoxy)-2-(5-fluoro-2-methoxyphenyl)ethyl)-5-methyl-2,4-dioxo-6-(1H-pyrazol-1-yl)-1,4-dihydrothieno[2,3-d]pyrimidin-3 (2H)-yl)-N-isopropyl-2-methylpropanamide] | 6.39 | 79.6 | AA (≥85% control of barley powdery mildew) | AA (≥85% control of wheat leaf rust) | AA (≥85% control of wheat septoria leaf blotch) | 5.00 | 80 | ≥ 10 | ≥ 0.4 | 0.4 (≈ 0.67 µM) | 0.08 (≈ 0.134 µM) | 0.4 (≈ 0.67 µM) | 50 (≈ 83.8 µM) | ≥ 0.4 | 0.08 (≈ 0.134 µM) | –
